This is an account of results in US20230235374A1, “High Throughput Assays for Detecting Translation Readthrough Inducers” (The Trustees of the University of Pennsylvania, priority 2021, published 2023).

The subject of experiment [1] is Atto(pep)-Stop-POST5 (RFC-dependent termination). The experiment is described as follows: Plate reader fluorescence anisotropy assay of pentapeptide release. It is filed as biochemical, shrimp (Artemia salina). To be noted: added ataluren 200-1,000 μM. As for the experimental part:
Plate reader assays were run in a Tecan F200® 96-well plate reader (Greiner® black, non-binding, chimney flat) equipped with 640 nm excitation and 700 nm polarization filters using 96-well plates. Atto(pep)-Stop-POST5 in Buffer 4 (0.1 μM, 80 μl) containing GTP (1 mM) was added to plate wells±ataluren at 25° C. eRF1 and eRF3 aliquots stored at −80° C. were thawed for 15 s at 37° C. and added directly to a premade ice-cold GTP (1 mM)±ataluren solution in Buffer 4. The resulting release factor solution was incubated at 25° C. for 1 min, and then added quickly in 80 μL portions to the Atto(pep)-Stop-POST5 containing wells with a multichannel pipette to the Atto(pep)-Stop-Posts wells. The final concentrations were: eRF1, 0.025-0.4 μM; eRF3, 0.8 μM; Atto(pep)-Stop-Posts, 0.05 μM. Fluorescence anisotropy decay graphs were fit with GraphPad Prism, using the one phase decay model to obtain peptide dissociation rates.
Ensemble fluorescence anisotropy results using Atto(pep)-Stop-POST5. The fluorescence anisotropy of the pentapeptidyl moiety of Atto(pep)-Stop-POST5 was quite high (0.22), and decreased following addition of RFC, providing a convenient measure of the rate of pentapeptide release from the ribosome. […] Each such time dependency could be fit to a single exponential, giving the collected rate constants presented in FIG. 9G, in which the rate dependence as a function of RFC concentration was measured at 0, 200, 500, and 1,000 μM ataluren. In the absence of ataluren, EC50 (0.029±0.002 μM) and Vmax (0.31±0.02) values were obtained for pentapeptide release similar to those measured by smTIRF. In addition, as with the smTIRF results, Vmax values were unaffected by added ataluren but EC50 values increased, reaching ˜0.06 μM at 1000 μM.
In general terms: Fluorescence polarisation rises when a labelled molecule tumbles more slowly, as on binding a larger partner.

Experiment [2] concerns rRNA fragments I-IV of 80S-IRES. The experiment is described as follows: RNaseH fragment assay, 80S-IRES. The experiment is classed as binding, shrimp (Artemia salina). To be noted: PAL, 300 μM AzAt, alone or plus competing ligand named as label. As to the method:
RNaseH Fragment Assay. Total RNA was prepared from the ^3H-AzAt photoaffinity labeled ribosome by phenol-chloroform extraction. RNA: DNA duplexes were formed by incubating total RNA (0.2 μM) with an oligonucleotide pair (1 μM of each, sequences shown Table 1), flanking a specific RNA region, in 22.8 μL of water at 95° C. for 2 min, followed by annealing at 50° C. for 30 s and quenching on ice. Six units (1.2 μL) of RNase H (NEB) and 6 μl of 5×RNase H Reaction Buffer were next added to the RNA: DNA duplex and incubated at 37° C. for 1 hour, followed by phenol-chloroform extraction of RNA. The digested RNA was separated on 12% TBE-Urea PAGE gel, and the target band along with the adjacent upper and bottom gels were sliced by a 2 mm gel cutter. The gel slices were crushed and the ^3H labeled rRNA fragment was extracted in water by vigorously shaking at 70° C. for 30 min, or by overnight extraction in elution buffer (0.3M sodium acetate, 0.25% SDS, 1 mM EDTA). The slurry was removed by centrifugation and the eluted ^3H labeled rRNA in the supernatant was quantified. The stoichiometry of AzAt photoincorporation was calculated based on a gel recovery yield of 20±2%, determined using an authentic sample of [^3H]-Gln-tRNA^Gln.
Testing the functional pertinence of AzAt photolabeling of 18S A1195, 28S-A3093, 28S-A2672, and 28S-2669. An RNAse H fragment assay was employed to determine whether the potential functionally significant sites identified by LASER-seq correspond to ataluren binding sites relevant for termination activity. In this assay, oligonucleotide hybridization, RNase H digestion and polyacrylamide gel electrophoresis (PAGE) were used to determine the stoichiometry of [^3H]-AzAt photoincorporation into the three rRNA fragments that together include the four nucleotides of interest: Fragment I, 18S-A1195; Fragment II, 26S-A3093; Fragment III, 26S-A2669 and 26S-A2672 (Table 5). The separate addition of four potential competitors of AzAt binding (eRF1 alone, the stably bound eRF1.eRF3.GDPNP complex, ataluren, and the ataluren-like TRID GJ072) was used to test how these affected such photoincorporation. These experiments, the results of which are summarized in Table 5, were performed at two different AzAt concentrations. eRF1 and eRF1.eRF3.GDPNP effects were measured using 300 μM AzAt, paralleling the LASER-Seq PAL experiments.

For the compound `O=C(O)c1cccc(-c2noc(-c3ccccc3F)n2)c1` [Ataluren], in experiment [1], the “effect on Vmax values” is recorded as “unaffected”.

Turning to `[N-]=[N+]=Nc1ccc(-c2nc(-c3cccc(C(=O)O)c3)no2)cc1` [AzAt], in experiment [2] (80S-IRES), the “Photoincorporation yields into 18S A1195/ I: 18S 1151-1206” value is 1.03 ± 0.33 mole %, the “Photoincorporation yields into 26S-A2669:A2672/ III: 26S 2638-2702” value is reported as 1.01 ± 0.12 mole % and the “Photoincorporation yields into 26S-A3093/ II: 26S 3069-3113” value is listed as 0.50 ± 0.09 mole %. In addition, the “Photoincorporation yields into RNAse H Fragment IV: 26S 1413-1476” value in experiment [2] (80S.IRES) turned out to be 0.29 ± 0.11%.
